From ChEMBL document CHEMBL4680060, “Polybasic peptide-levofloxacin conjugates potentiate fluoroquinolones and other classes of antibiotics against multidrug-resistant Gram-negative bacteria” (Medchemcomm, 2019)
In brackets after ≈: the same amount, converted by molar mass. Activity calls are given as the source filed them. The rule behind the calls is not given here.

Tests used:
Streptococcus pneumoniae = experiment: Antibacterial activity against Streptococcus pneumoniae ATCC 49619 assessed as inhibition of visible growth incubated for 18 hrs by CLSI protocol based microbroth dilution method; assay type: functional
Enterococcus faecalis = experiment: Antibacterial activity against Enterococcus faecalis ATCC 29212 assessed as inhibition of visible growth incubated for 18 hrs by CLSI protocol based microbroth dilution method; assay type: functional
Enterobacter cloacae = experiment: Antibacterial activity against Enterobacter cloacae 117029 assessed as inhibition of visible growth incubated for 18 hrs by CLSI protocol based microbroth dilution method; assay type: functional
Pseudomonas aeruginosa [1] = experiment: Antibacterial activity against Pseudomonas aeruginosa ATCC 27853 assessed as inhibition of visible growth incubated for 18 hrs by CLSI protocol based microbroth dilution method; assay type: functional
Pseudomonas aeruginosa [2] = experiment: Potentiation of levofloxacin-induced antibacterial activity against wild type Pseudomonas aeruginosa PAO1 assessed as levofloxacin MIC measured after 18 hrs by CLSI protocol based microbroth dilution method (reference value: 0.5 ug/ml); assay type: functional
Pseudomonas aeruginosa [3] = experiment: Potentiation of moxifloxacin-induced antibacterial activity against wild type Pseudomonas aeruginosa PAO1 assessed as moxifloxacin MIC measured after 18 hrs by CLSI protocol based microbroth dilution method (reference value: 1 ug/ml); assay type: functional
Pseudomonas aeruginosa [4] = experiment: Synergistic antibacterial activity against wild type Pseudomonas aeruginosa PAO1 assessed as fractional inhibitory concentration index in presence of levofloxacin by Checkerboard assay; assay type: functional
Pseudomonas aeruginosa [5] = experiment: Synergistic antibacterial activity against wild type Pseudomonas aeruginosa PAO1 assessed as fractional inhibitory concentration index in presence of moxifloxacin by Checkerboard assay; assay type: functional
Pseudomonas aeruginosa [6] = experiment: Potentiation of moxifloxacin-induced antibacterial activity against wild type Pseudomonas aeruginosa PAO1 assessed as […] measured after 18 hrs by CLSI protocol based microbroth dilution method relative to moxifloxacin MIC; assay type: functional
Pseudomonas aeruginosa [7] = experiment: Additive antibacterial activity against MexAB-OprM efflux pump deficient Pseudomonas aeruginosa PAO200 in presence of moxifloxacin by Checkerboard assay; assay type: functional, organism-based
Pseudomonas aeruginosa [8] = experiment: Synergistic antibacterial activity against wild type Pseudomonas aeruginosa PAO1 in presence of moxifloxacin by Checkerboard assay; assay type: functional, organism-based
Pseudomonas aeruginosa [9] = experiment: Synergistic antibacterial activity against multidrug resistant Pseudomonas aeruginosa PA259 in presence of ciprofloxacin by Checkerboard assay; assay type: functional, organism-based
Pseudomonas aeruginosa [10] = experiment: Synergistic antibacterial activity against multidrug resistant Pseudomonas aeruginosa PA259 in presence of levofloxacin by Checkerboard assay; assay type: functional, organism-based
Pseudomonas aeruginosa [11] = experiment: Synergistic antibacterial activity against multidrug resistant Pseudomonas aeruginosa PA259 in presence of moxifloxacin by Checkerboard assay; assay type: functional, organism-based
Pseudomonas aeruginosa [12] = experiment: Synergistic antibacterial activity against multidrug resistant Pseudomonas aeruginosa PA260 in presence of ciprofloxacin by Checkerboard assay; assay type: functional, organism-based
Pseudomonas aeruginosa [13] = experiment: Synergistic antibacterial activity against multidrug resistant Pseudomonas aeruginosa PA260 in presence of moxifloxacin by Checkerboard assay; assay type: functional, organism-based
Pseudomonas aeruginosa [14] = experiment: Synergistic antibacterial activity against multidrug resistant Pseudomonas aeruginosa PA262 in presence of levofloxacin by Checkerboard assay; assay type: functional, organism-based
Pseudomonas aeruginosa [15] = experiment: Synergistic antibacterial activity against multidrug resistant Pseudomonas aeruginosa PA262 in presence of moxifloxacin by Checkerboard assay; assay type: functional, organism-based
Pseudomonas aeruginosa [16] = experiment: Synergistic antibacterial activity against multidrug resistant Pseudomonas aeruginosa PA264 in presence of ciprofloxacin by Checkerboard assay; assay type: functional, organism-based
Pseudomonas aeruginosa [17] = experiment: Synergistic antibacterial activity against multidrug resistant Pseudomonas aeruginosa PA264 in presence of moxifloxacin by Checkerboard assay; assay type: functional, organism-based
Pseudomonas aeruginosa [18] = experiment: Synergistic antibacterial activity against multidrug resistant Pseudomonas aeruginosa PA100036 in presence of levofloxacin by Checkerboard assay; assay type: functional, organism-based
Pseudomonas aeruginosa [19] = experiment: Synergistic antibacterial activity against multidrug resistant Pseudomonas aeruginosa PA100036 in presence of moxifloxacin by Checkerboard assay; assay type: functional, organism-based
Pseudomonas aeruginosa [20] = experiment: Synergistic antibacterial activity against multidrug resistant Pseudomonas aeruginosa PA101885 in presence of levofloxacin by Checkerboard assay; assay type: functional, organism-based
Pseudomonas aeruginosa [21] = experiment: Synergistic antibacterial activity against multidrug resistant Pseudomonas aeruginosa PA101885 in presence of moxifloxacin by Checkerboard assay; assay type: functional, organism-based
Escherichia coli [22] = experiment: Additive antibacterial activity against Escherichia coli 94393 in presence of ciprofloxacin by Checkerboard assay; assay type: functional, organism-based
Escherichia coli [23] = experiment: Synergistic antibacterial activity against Escherichia coli ATCC 25922 in presence of levofloxacin by Checkerboard assay; assay type: functional, organism-based
Escherichia coli [24] = experiment: Synergistic antibacterial activity against Escherichia coli 94474 in presence of levofloxacin by Checkerboard assay; assay type: functional, organism-based
Escherichia coli [25] = experiment: Synergistic antibacterial activity against Escherichia coli 107115 in presence of moxifloxacin by Checkerboard assay; assay type: functional, organism-based
Escherichia coli [26] = experiment: Synergistic antibacterial activity against Escherichia coli 94474 in presence of moxifloxacin by Checkerboard assay; assay type: functional, organism-based
Klebsiella pneumoniae = experiment: Synergistic antibacterial activity against Klebsiella pneumoniae 116381 in presence of ciprofloxacin by Checkerboard assay; assay type: functional, organism-based
Acinetobacter baumannii = experiment: Synergistic antibacterial activity against multidrug resistant Acinetobacter baumannii AB027 assessed as fractional inhibitory concentration index in presence of ciprofloxacin by Checkerboard assay; assay type: functional
[27] = Hemolytic activity in pig erythrocyte at 512 ug/ml incubated for 1 hr by microplate reader assay relative to control; assay type: ADME, cell-based, Sus scrofa; settings: pig erythrocytes, at 512 µg/mL, read-out: Activity
Pseudomonas aeruginosa [28] = experiment: Potentiation of chloramphenicol-induced antibacterial activity against wild type Pseudomonas aeruginosa PAO1 measured after 18 hrs by CLSI protocol based microbroth dilution method; assay type: functional, organism-based
Pseudomonas aeruginosa [29] = experiment: Potentiation of linezolid-induced antibacterial activity against wild type Pseudomonas aeruginosa PAO1 measured after 18 hrs by CLSI protocol based microbroth dilution method; assay type: functional, organism-based
Pseudomonas aeruginosa [30] = experiment: Potentiation of clindamycin-induced antibacterial activity against wild type Pseudomonas aeruginosa PAO1 measured after 18 hrs by CLSI protocol based microbroth dilution method; assay type: functional, organism-based
Pseudomonas aeruginosa [31] = experiment: Potentiation of trimethoprim-induced antibacterial activity against wild type Pseudomonas aeruginosa PAO1 measured after 18 hrs by CLSI protocol based microbroth dilution method; assay type: functional, organism-based
Pseudomonas aeruginosa [32] = experiment: Potentiation of pleuromutilin-induced antibacterial activity against wild type Pseudomonas aeruginosa PAO1 measured after 18 hrs by CLSI protocol based microbroth dilution method; assay type: functional, organism-based
Pseudomonas aeruginosa [33] = experiment: Potentiation of ceftazidime-induced antibacterial activity against wild type Pseudomonas aeruginosa PAO1 measured after 18 hrs by CLSI protocol based microbroth dilution method; assay type: functional, organism-based
Pseudomonas aeruginosa [34] = experiment: Potentiation of rifampicin-induced antibacterial activity against wild type Pseudomonas aeruginosa PAO1 measured after 18 hrs by CLSI protocol based microbroth dilution method; assay type: functional, organism-based
Pseudomonas aeruginosa [35] = experiment: Potentiation of vancomycin-induced antibacterial activity against wild type Pseudomonas aeruginosa PAO1 measured after 18 hrs by CLSI protocol based microbroth dilution method; assay type: functional, organism-based

Work on `C[C@H]1COc2c(N3CCN(C)CC3)c(F)cc3c(=O)c(C(=O)NCCCCCCCCCCCC(=O)N[C@@H](CCN)C(=O)N[C@@H](CCN)C(N)=O)cn1c23` yielded an MIC (Streptococcus pneumoniae) greater than 128 µg/mL, an MIC (Enterococcus faecalis) greater than 128 µg/mL and an MIC (Enterobacter cloacae) of 128 µg/mL (≈ 169 µM). For the same compound, the MIC (Pseudomonas aeruginosa [1]) was greater than 128 µg/mL, the MIC (Pseudomonas aeruginosa [2]) was 0.063 µg/mL and the MIC (Pseudomonas aeruginosa [3]) was 0.25 µg/mL. For the same compound, the “fractional inhibitory concentration index (FICI)” value (Pseudomonas aeruginosa [4]) was 0.5, the “fractional inhibitory concentration index (FICI)” value (Pseudomonas aeruginosa [5]) was 0.5 and the Ratio (Pseudomonas aeruginosa [6]) was 4. The Activity (Pseudomonas aeruginosa [7]) was “Active”, the Activity (Pseudomonas aeruginosa [8]) was “Active” and the Activity (Pseudomonas aeruginosa [9]) was “Active”. The Activity (Pseudomonas aeruginosa [10]) was “Active”, the Activity (Pseudomonas aeruginosa [11]) was “Active” and the Activity (Pseudomonas aeruginosa [12]) was “Active”. The Activity (Pseudomonas aeruginosa [13]) was “Active”, the Activity (Pseudomonas aeruginosa [14]) was “Active” and the Activity (Pseudomonas aeruginosa [15]) was “Active”. The Activity (Pseudomonas aeruginosa [16]) was “Active”, the Activity (Pseudomonas aeruginosa [17]) was “Active” and the Activity (Pseudomonas aeruginosa [18]) was “Active”. For the same compound, the Activity (Pseudomonas aeruginosa [19]) was “Active”, the Activity (Pseudomonas aeruginosa [20]) was “Active” and the Activity (Pseudomonas aeruginosa [21]) was “Active”. The Activity (Escherichia coli [22]) was “Active”, the Activity (Escherichia coli [23]) was “Active” and the Activity (Escherichia coli [24]) was “Active”. For the same compound, the Activity (Escherichia coli [25]) was “Active”, the Activity (Escherichia coli [26]) was “Active” and the Activity (Klebsiella pneumoniae) was “Active”. The “fractional inhibitory concentration index (FICI)” value (Acinetobacter baumannii) was 0.37, the hemolysis at 1 h, 512 ug/ml [27] was less than 1% and the Activity (Pseudomonas aeruginosa [28]) was “Active”. For the same compound, the Activity (Pseudomonas aeruginosa [29]) was “Active”, the Activity (Pseudomonas aeruginosa [30]) was “Active” and the Activity (Pseudomonas aeruginosa [31]) was “Active”. For the same compound, the Activity (Pseudomonas aeruginosa [32]) was “Active”, the Activity (Pseudomonas aeruginosa [33]) was “Active” and the Activity (Pseudomonas aeruginosa [34]) was “Active”. For the same compound, the Activity (Pseudomonas aeruginosa [35]) was “Active”.
